Series [1] is described as follows: Pharmacokinetics assay in Beagle dogs. In kind it is in vivo. The following applies: for Vd/F / AUC / CL/F / half-life / MRT / Cmax / Tmax: male, beagle, dog, plasma, po; for Vd/F: read-out: Apparent Distribution Volume Vz/F; for AUC: read-out: Area Under Curve AUC; for CL/F: read-out: Clearance CL/F (converted); for half-life: read-out: Half-Life t1/2 (converted); for MRT: read-out: Mean Residence Time MRT; for Cmax: read-out: Plasma Conc. Cmax; for Tmax: read-out: Time to peak Tmax. As for the experimental part:
The pharmacokinetic behavior of the compounds of the present disclosure was studied and evaluated in Beagle dogs.
12 Healthy adult Beagles dogs, male, were purchased from Suzhou Xishan Drug Research and Development Colo., LTD. License number: SCXK (Suzhou) 2007-0005.
The test compound was diluted with 0.5% sodium carboxymethyl cellulose to 2.5 mg/mL (calculated as the free acid form) of suspension before use.
12 Healthy adult Beagles dogs, male, were divided into 4 groups. After an overnight fast, the dogs were administered intragastrically at a dose of 5.0 mg/kg (calculated as the free acid form), at a volume of 2 mL/kg.
Blood samples (1.2 mL) were taken from vein of forelegs at pre administration and at 0.25, 0.5, 1.0, 1.5, 2.0, 3.0, 5.0, 6.0, 8.0, 12.0, 14.0, 24.0 and 48.0 hours post administration, which were stored in heparinized tubes and centrifuged for 10 minutes at 3,500 rpm. The plasma samples were stored at −20° C. until analysis. The Beagles dogs were fed 2 hours after administration.
50 μL of Beagles dog plasma, obtained at various time points after administration, 20 μL of internal standard solution and 150 μL of methanol was added to result in protein precipitation. Then the mixture was mixed for 1 minute using a vortexer and centrifuged for 5 minutes at 11,000 rpm. 50 μL of the supernatant was analyzed by HPLC-UV.
The compartmental model of pharmacokinetics was fitted for the test compounds and the major pharmacokinetic parameters were calculated in which Cmax and tmax were the actually measured values.

A short description of series [2]: Pharmacokinetics assay in rats. The format is in vivo, SD rats. The essentials:
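SD rats, half male and half female, dosed intragastrically with compound suspended at 5 mg/mL (as free acid) in 1% sodium carboxymethyl cellulose; fed 2 h post-dose. Plasma concentrations over time were measured by HPLC-UV. Parameters came from a compartmental fit, with Cmax and tmax as observed values.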

Setting [3] is: intragastric, 5 mg/kg (as free acid), 5 mg/kg.
Setting [4] is: SD rats, intragastric, 50 mg/Kg (as free acid), 50 mg/kg.
Setting [5] is: 5 mg/kg, intragastric, 5 mg/kg (as free acid).

Structures are written as SMILES.

For `CC1=NN(c2ccc3c(c2)CCCC3)C(=O)/C1=N\Nc1cccc(-c2ccc(C(=O)O)o2)c1O` [Example 8, (Z)-5-(2-hydroxy-3-{N′-[3-methyl-5-oxo-1-(5,6,7,8-tetrahydro-naphthalen-2-yl)-1,5-dihydro-pyrazol-4-ylidene]-hydrazino}-phenyl)-furan-2-carboxylic acid bis-(choline)], in series [1] (setting [3]), the “Area Under Curve AUC” value came to 7910 ng·h/mL, the “Clearance CL/F” value was determined as 14.6 mL/min/kg, the “Half-Life t1/2” value amounted to 7.67 h and the “Plasma Conc. Cmax” value amounted to 600 ng/mL. In addition, in series [1] (setting [3]), the “Time to peak Tmax” value is on record as 0.5 h. In series [2] (setting [4]), the “Area Under Curve AUC” value stood at 352000 ± 586000 ng·h/mL, the “Clearance CL/F” value came to 15.4 ± 16.88 mL/min/kg, the “Half-Life t½” value stood at 10.6 ± 9.02 h and the “Plasma Conc. Cmax” value is 36200 ± 46200 ng/mL. For the same compound, the “Time to peak Tmax” value in series [2] (setting [4]) worked out at 1.38 ± 1.11 h.
By AUC is commonly meant concentration integrated over time. What is called MRT is a mean duration of stay, worked out from the concentration-time curve. For orientation: Cmax means the highest concentration seen after dosing. In general, Tmax refers to the time at which the peak concentration occurs. As to `CC1=NN(c2ccc3c(c2)CCCC3)C(=O)/C1=N\Nc1cccc(-c2ccc(C(=O)O)o2)c1O` [Example 12, (Z)-5-(2-hydroxy-3-{N′-[3-methyl-5-oxo-1-(5,6,7,8-tetrahydro-naphthalen-2-yl)-1,5-dihydro-pyrazol-4-ylidene]-hydrazino}-phenyl)-furan-2-carboxylic acid bis-(trometamol)], in series [1] (setting [5]), the Vd/F stood at 4.86 L/kg, the AUC is 11000 ng·h/mL, the CL/F is 11 mL/min/kg and the half-life is 6.86 h. In series [1] (setting [5]), the mean residence time (MRT) was 11.6 h, the Cmax was determined as 811 ng/mL and the Tmax was found to be 0.5 h. In series [2] (setting [4]), the “Area Under Curve AUC” value amounted to 58500 ± 23800 ng·h/mL, the “Clearance CL/F” value amounted to 16.7 ± 8.4 mL/min/kg, the “Half-Life t½” value was determined as 5.1 ± 2.41 h and the “Plasma Conc. Cmax” value stood at 17800 ± 10300 ng/mL. Moreover, in series [2] (setting [4]), the “Time to peak Tmax” value turned out to be 1.38 ± 1.11 h.
For `CC1=NN(c2ccc3c(c2)CCCC3)C(=O)/C1=N\Nc1cccc(-c2ccc(C(=O)O)o2)c1O.NCCO.NCCO` [Example 7, (Z)-5-(2-hydroxy-3-{N′-[3-methyl-5-oxo-1-(5,6,7,8-tetrahydro-naphthalen-2-yl)-1,5-dihydro-pyrazol-4-ylidene]-hydrazino}-phenyl)-furan-2-carboxylic acid bis-(ethanolamine)], the “pharmacokinetics, in words” value in series [1] (among the four salts) was “obviously superior in pharmacokinetics”. In addition, the Vd/F in series [1] (setting [5]) was found to be 5.72 L/kg; in series [2] (both sexes, SD, rat, plasma, po, 50 mg/kg, SD rats, intragastric, 50 mg/Kg (as free acid), read-out: Apparent Distribution Volume Vz/F) it was 2.48 ± 0.92 L/kg. Also, the exposure (AUC) in series [1] (setting [5]) was 12200 ng·h/mL; in series [2] (both sexes, SD, rat, plasma, po, 50 mg/kg, SD rats, intragastric, 50 mg/Kg (as free acid), read-out: Area Under Curve AUC), 469000 ± 274000 ng·h/mL. In addition, the CL/F was 8.3 mL/min/kg in series [1] (setting [5]) and 2.92 mL/min/kg in series [2] (both sexes, SD, rat, plasma, po, 50 mg/kg, SD rats, intragastric, 50 mg/Kg (as free acid), read-out: Clearance CL/F (converted)). Also, the half-life in series [1] (setting [5]) is 8.24 h; in series [2] (both sexes, SD, rat, plasma, po, 50 mg/kg, SD rats, intragastric, 50 mg/Kg (as free acid), read-out: Half-Life t½ (converted)) it was 13.9 ± 6.07 h. Further, the MRT in series [1] (setting [5]) came to 13.3 h; in series [2] (both sexes, SD, rat, plasma, po, 50 mg/kg, SD rats, intragastric, 50 mg/Kg (as free acid), read-out: Mean Residence Time MRT), 13.3 ± 5.12 h. Further, the Cmax was found to be 985 ng/mL in series [1] (setting [5]) and 74100 ± 34500 ng/mL in series [2] (both sexes, SD, rat, plasma, po, 50 mg/kg, SD rats, intragastric, 50 mg/Kg (as free acid), read-out: Plasma Conc. Cmax). For the same compound, the Tmax came to 1.2 h in series [1] (setting [5]) and 1.75 ± 0.5 h in series [2] (both sexes, SD, rat, plasma, po, 50 mg/kg, SD rats, intragastric, 50 mg/Kg (as free acid), read-out: Time to peak Tmax). Besides, in series [2] (rats, comparing to the free acid), the “pharmacokinetics and bioavailability, in words” value was “good pharmacokinetic characteristics”.

For the origin of these results see patent US9120762B2, “Salts of bicyclo-substituted pyrazolon azo derivatives, preparation method and use thereof” (Jiangsu Hengrui Medicine Co., Ltd., priority 2009, dated 2015).
